{
  "source": "the kinase profiling compilation of Christmann-Franck et al. (2016)",
  "assay_in_all_cases": "KINOMEscan competition binding",
  "conditions_in_all_cases": "compound 10.0 µM",
  "key": {"[1]": {"molecular_target": "RIPK1 (human) (UniProt Q13546)"}, "[2]": {"molecular_target": "MARK2 (human) (UniProt Q7KZI7)", "sequence (Q7KZI7 whole entry, looked up)": "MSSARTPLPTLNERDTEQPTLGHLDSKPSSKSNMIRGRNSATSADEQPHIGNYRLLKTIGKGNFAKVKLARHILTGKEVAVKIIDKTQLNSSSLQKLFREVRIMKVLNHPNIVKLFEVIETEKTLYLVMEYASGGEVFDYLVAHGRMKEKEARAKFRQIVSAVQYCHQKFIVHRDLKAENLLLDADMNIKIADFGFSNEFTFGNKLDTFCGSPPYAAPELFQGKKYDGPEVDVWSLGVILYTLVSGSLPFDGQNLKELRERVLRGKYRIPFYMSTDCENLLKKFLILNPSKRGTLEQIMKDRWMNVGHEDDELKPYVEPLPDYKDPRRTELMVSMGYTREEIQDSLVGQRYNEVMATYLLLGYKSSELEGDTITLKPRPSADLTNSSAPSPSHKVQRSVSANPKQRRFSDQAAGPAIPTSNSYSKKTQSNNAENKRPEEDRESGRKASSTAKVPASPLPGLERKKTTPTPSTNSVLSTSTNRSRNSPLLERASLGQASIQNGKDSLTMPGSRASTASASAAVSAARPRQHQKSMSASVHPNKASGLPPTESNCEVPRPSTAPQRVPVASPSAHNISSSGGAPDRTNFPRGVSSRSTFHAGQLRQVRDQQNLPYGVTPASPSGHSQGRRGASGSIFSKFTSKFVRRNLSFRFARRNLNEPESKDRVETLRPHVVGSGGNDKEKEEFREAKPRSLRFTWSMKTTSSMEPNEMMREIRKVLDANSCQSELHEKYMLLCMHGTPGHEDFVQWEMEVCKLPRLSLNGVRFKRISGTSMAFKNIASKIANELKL"}, "[3]": {"molecular_target": "PRKX (human) (UniProt P51817)"}, "[4]": {"molecular_target": "ROCK2 (human) (UniProt O75116)"}, "[5]": {"molecular_target": "CAMK2D (human) (UniProt Q13557)"}, "[6]": {"test_system": "ABL1 (human), P00519 [Y253F]"}, "[7]": {"molecular_target": "NEK6 (human) (UniProt Q9HC98)"}, "[8]": {"molecular_target": "AURKA (human) (UniProt O14965)"}, "[9]": {"molecular_target": "ACVRL1 (human) (UniProt P37023)"}, "[10]": {"molecular_target": "MAPK12 (human) (UniProt P53778)", "sequence (P53778 whole entry, looked up)": "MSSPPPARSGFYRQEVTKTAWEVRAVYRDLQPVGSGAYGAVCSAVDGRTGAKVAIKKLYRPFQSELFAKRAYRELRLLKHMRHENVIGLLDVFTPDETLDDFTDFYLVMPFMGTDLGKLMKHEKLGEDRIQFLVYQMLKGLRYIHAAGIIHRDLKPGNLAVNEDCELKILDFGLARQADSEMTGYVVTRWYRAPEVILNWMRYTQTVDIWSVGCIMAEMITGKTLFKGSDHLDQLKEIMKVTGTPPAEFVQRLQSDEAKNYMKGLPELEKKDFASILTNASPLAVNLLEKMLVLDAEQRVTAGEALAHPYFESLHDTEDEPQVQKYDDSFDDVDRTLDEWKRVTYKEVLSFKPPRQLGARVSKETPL"}, "[11]": {"molecular_target": "EPHB4 (human) (UniProt P54760)"}, "[12]": {"molecular_target": "PIK3C2B (human) (UniProt O00750)"}, "[13]": {"molecular_target": "TXK (human) (UniProt P42681)"}, "[14]": {"molecular_target": "PKMYT1 (human) (UniProt Q99640)"}, "[15]": {"molecular_target": "TYRO3 (human) (UniProt Q06418)"}, "[16]": {"molecular_target": "RPS6KA5 KD1 (human) (UniProt O75582)"}, "[17]": {"molecular_target": "MAP4K3 (human) (UniProt Q8IVH8)"}, "[18]": {"test_system": "ABL1 (human), P00519 [F317L]"}, "[19]": {"molecular_target": "LIMK1 (human) (UniProt P53667)"}, "[20]": {"test_system": "EGFR (human), P00533 [A750P; 747-749 del]"}, "[21]": {"molecular_target": "ALK (human) (UniProt Q9UM73)", "sequence (Q9UM73 whole entry, looked up)": "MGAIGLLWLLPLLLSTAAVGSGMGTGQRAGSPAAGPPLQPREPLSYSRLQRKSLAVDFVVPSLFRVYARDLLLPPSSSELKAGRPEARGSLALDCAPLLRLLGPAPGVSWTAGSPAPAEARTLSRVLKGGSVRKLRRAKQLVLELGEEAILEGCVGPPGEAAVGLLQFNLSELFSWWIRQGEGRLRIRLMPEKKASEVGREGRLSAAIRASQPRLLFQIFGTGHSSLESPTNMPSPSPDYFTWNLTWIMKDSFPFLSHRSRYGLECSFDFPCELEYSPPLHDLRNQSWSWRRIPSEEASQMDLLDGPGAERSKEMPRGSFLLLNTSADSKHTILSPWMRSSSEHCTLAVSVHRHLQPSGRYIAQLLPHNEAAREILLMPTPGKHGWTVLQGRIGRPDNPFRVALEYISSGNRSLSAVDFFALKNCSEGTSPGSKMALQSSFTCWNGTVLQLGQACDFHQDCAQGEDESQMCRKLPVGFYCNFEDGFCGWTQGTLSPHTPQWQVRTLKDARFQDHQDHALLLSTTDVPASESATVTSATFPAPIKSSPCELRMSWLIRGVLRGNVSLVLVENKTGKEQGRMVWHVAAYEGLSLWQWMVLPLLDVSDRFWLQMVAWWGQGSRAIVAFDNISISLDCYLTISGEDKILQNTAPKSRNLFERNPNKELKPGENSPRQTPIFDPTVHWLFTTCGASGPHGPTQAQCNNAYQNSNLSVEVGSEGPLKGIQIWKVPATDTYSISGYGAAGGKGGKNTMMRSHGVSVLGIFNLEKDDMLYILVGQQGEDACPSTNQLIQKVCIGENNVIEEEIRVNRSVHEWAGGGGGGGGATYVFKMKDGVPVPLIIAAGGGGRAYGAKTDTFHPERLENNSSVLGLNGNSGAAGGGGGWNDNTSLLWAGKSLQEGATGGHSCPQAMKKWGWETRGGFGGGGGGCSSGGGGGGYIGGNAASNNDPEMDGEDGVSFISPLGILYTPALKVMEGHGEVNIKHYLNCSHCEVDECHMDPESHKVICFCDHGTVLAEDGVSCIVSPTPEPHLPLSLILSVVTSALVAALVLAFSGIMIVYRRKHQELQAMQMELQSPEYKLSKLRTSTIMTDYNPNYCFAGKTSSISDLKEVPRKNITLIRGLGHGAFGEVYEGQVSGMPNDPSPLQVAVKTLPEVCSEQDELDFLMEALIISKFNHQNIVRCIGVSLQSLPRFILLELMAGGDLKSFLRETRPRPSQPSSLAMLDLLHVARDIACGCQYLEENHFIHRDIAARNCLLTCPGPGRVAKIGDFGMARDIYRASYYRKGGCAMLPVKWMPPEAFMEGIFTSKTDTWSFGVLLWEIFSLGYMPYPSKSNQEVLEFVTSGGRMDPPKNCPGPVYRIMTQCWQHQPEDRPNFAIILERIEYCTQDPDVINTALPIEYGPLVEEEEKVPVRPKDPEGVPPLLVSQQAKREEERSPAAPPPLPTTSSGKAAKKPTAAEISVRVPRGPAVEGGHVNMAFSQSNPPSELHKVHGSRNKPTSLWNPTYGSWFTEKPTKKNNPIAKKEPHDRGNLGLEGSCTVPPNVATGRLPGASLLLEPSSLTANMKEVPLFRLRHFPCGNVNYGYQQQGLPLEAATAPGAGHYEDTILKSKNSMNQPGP"}, "[22]": {"molecular_target": "PHKG1 (human) (UniProt Q16816)"}, "[23]": {"molecular_target": "MARK4 (human) (UniProt Q96L34)"}, "[24]": {"molecular_target": "LCK (human) (UniProt P06239)"}, "[25]": {"molecular_target": "IKBKE (human) (UniProt Q14164)"}, "[26]": {"molecular_target": "MAPKAPK5 (human) (UniProt Q8IW41)"}, "[27]": {"test_system": "FGFR3 (human), P22607 [G697C]"}, "[28]": {"molecular_target": "PRKACA (human) (UniProt P17612)"}, "[29]": {"molecular_target": "MST4 (human) (UniProt Q9P289)"}, "[30]": {"test_system": "RET (human), P07949 [M918T]"}, "[31]": {"molecular_target": "INSR (human) (UniProt P06213)", "sequence (P06213 whole entry, looked up)": "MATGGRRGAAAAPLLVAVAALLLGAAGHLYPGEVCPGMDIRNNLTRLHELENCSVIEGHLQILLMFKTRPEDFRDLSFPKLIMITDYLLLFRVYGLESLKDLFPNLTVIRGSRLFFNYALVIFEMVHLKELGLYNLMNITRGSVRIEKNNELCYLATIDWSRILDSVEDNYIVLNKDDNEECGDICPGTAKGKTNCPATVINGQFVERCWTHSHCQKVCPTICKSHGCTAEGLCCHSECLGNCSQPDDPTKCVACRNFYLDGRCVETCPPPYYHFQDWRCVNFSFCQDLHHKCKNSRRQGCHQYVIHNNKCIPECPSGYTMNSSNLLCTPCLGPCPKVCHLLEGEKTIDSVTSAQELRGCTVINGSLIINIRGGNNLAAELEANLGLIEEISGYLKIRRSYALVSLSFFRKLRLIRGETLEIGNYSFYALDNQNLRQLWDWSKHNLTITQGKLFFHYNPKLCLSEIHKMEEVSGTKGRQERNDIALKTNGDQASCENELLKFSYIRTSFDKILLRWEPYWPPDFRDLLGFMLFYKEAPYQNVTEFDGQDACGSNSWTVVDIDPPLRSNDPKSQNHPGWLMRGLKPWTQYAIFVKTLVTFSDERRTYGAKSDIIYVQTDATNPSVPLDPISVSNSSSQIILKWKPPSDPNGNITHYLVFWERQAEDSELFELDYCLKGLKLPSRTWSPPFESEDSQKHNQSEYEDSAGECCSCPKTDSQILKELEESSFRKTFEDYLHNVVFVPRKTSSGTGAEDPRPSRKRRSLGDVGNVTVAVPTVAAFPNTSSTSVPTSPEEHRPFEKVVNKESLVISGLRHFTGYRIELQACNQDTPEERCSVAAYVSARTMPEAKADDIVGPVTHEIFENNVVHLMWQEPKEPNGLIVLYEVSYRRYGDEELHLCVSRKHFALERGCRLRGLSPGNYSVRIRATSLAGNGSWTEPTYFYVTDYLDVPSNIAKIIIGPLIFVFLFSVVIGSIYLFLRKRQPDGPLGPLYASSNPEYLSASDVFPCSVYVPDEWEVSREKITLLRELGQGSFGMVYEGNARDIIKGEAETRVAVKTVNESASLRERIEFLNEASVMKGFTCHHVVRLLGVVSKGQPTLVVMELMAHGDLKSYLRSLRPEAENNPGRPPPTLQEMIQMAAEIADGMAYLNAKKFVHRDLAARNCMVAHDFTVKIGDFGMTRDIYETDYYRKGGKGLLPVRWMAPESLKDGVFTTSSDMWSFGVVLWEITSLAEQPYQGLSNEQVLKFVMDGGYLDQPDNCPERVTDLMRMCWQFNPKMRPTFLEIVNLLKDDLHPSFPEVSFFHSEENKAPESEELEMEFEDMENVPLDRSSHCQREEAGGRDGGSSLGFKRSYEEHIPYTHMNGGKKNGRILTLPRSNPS"}, "[32]": {"molecular_target": "ITK (human) (UniProt Q08881)"}, "[33]": {"molecular_target": "FGFR4 (human) (UniProt P22455)"}, "[34]": {"molecular_target": "PKN1 (human) (UniProt Q16512)"}, "[35]": {"molecular_target": "STK10 (human) (UniProt O94804)"}, "[36]": {"molecular_target": "MAP2K1 (human) (UniProt Q02750)", "sequence (Q02750 whole entry, looked up)": "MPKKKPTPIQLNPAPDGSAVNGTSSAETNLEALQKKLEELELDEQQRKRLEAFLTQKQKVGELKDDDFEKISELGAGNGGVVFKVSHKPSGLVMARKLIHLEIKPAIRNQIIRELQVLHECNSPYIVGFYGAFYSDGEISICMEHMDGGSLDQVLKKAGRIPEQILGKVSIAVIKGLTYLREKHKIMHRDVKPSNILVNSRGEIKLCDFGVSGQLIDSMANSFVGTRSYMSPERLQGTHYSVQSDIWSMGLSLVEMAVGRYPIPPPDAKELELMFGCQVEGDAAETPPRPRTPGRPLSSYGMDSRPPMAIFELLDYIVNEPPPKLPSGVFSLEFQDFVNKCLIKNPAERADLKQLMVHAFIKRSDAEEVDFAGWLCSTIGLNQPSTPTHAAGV"}, "[37]": {"molecular_target": "PDGFRA (human) (UniProt P16234)"}, "[38]": {"molecular_target": "LIMK2 (human) (UniProt P53671)"}, "[39]": {"molecular_target": "EIF2AK2 (human) (UniProt P19525)"}, "[40]": {"molecular_target": "CDK11B (human) (UniProt P21127)"}, "[41]": {"molecular_target": "CDK3 (human) (UniProt Q00526)", "sequence (Q00526 whole entry, looked up)": "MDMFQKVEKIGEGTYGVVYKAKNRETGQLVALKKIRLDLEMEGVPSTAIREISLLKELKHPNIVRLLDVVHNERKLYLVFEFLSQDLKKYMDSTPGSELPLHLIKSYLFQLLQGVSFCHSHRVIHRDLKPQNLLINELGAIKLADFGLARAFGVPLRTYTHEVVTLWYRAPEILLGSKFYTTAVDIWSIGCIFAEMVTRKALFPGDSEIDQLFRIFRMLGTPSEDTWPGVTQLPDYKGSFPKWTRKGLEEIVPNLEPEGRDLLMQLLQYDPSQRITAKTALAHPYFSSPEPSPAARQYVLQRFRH"}},
  "data": [
    {"smiles": "COc1cc(N2CCN(C)CC2)ccc1Nc1ncc2c(n1)Nc1ccccc1NC2=O", "values": [
      {"measurement": "kinase still bound, per cent of control", "setting": "[1]", "result": 100, "unit": "%"},
      {"measurement": "kinase still bound, per cent of control", "setting": "[2]", "result": 100, "unit": "%"},
      {"measurement": "kinase still bound, per cent of control", "setting": "[3]", "result": 100, "unit": "%"},
      {"measurement": "kinase still bound, per cent of control", "setting": "[4]", "result": 48, "unit": "%"},
      {"measurement": "kinase still bound, per cent of control", "setting": "[5]", "result": 92, "unit": "%"},
      {"measurement": "kinase still bound, per cent of control", "setting": "[6]", "result": 26, "unit": "%"},
      {"measurement": "kinase still bound, per cent of control", "setting": "[7]", "result": 99, "unit": "%"},
      {"measurement": "kinase still bound, per cent of control", "setting": "[8]", "result": 78, "unit": "%"},
      {"measurement": "kinase still bound, per cent of control", "setting": "[9]", "result": 81, "unit": "%"},
      {"measurement": "kinase still bound, per cent of control", "setting": "[10]", "result": 81, "unit": "%"},
      {"measurement": "kinase still bound, per cent of control", "setting": "[11]", "result": 100, "unit": "%"},
      {"measurement": "kinase still bound, per cent of control", "setting": "[12]", "result": 100, "unit": "%"},
      {"measurement": "kinase still bound, per cent of control", "setting": "[13]", "result": 80, "unit": "%"},
      {"measurement": "kinase still bound, per cent of control", "setting": "[14]", "result": 100, "unit": "%"},
      {"measurement": "kinase still bound, per cent of control", "setting": "[15]", "result": 100, "unit": "%"},
      {"measurement": "kinase still bound, per cent of control", "setting": "[16]", "result": 90, "unit": "%"},
      {"measurement": "kinase still bound, per cent of control", "setting": "[17]", "result": 100, "unit": "%"},
      {"measurement": "kinase still bound, per cent of control", "setting": "[18]", "result": 29, "unit": "%"},
      {"measurement": "kinase still bound, per cent of control", "setting": "[19]", "result": 100, "unit": "%"},
      {"measurement": "kinase still bound, per cent of control", "setting": "[20]", "result": 33, "unit": "%"},
      {"measurement": "kinase still bound, per cent of control", "setting": "[21]", "result": 53, "unit": "%"},
      {"measurement": "kinase still bound, per cent of control", "setting": "[22]", "result": 46, "unit": "%"},
      {"measurement": "kinase still bound, per cent of control", "setting": "[23]", "result": 84, "unit": "%"},
      {"measurement": "kinase still bound, per cent of control", "setting": "[24]", "result": 28, "unit": "%"},
      {"measurement": "kinase still bound, per cent of control", "setting": "[25]", "result": 97, "unit": "%"},
      {"measurement": "kinase still bound, per cent of control", "setting": "[26]", "result": 100, "unit": "%"},
      {"measurement": "kinase still bound, per cent of control", "setting": "[27]", "result": 84, "unit": "%"},
      {"measurement": "kinase still bound, per cent of control", "setting": "[28]", "result": 100, "unit": "%"},
      {"measurement": "kinase still bound, per cent of control", "setting": "[29]", "result": 67, "unit": "%"},
      {"measurement": "kinase still bound, per cent of control", "setting": "[30]", "result": 72, "unit": "%"},
      {"measurement": "kinase still bound, per cent of control", "setting": "[31]", "result": 69, "unit": "%"},
      {"measurement": "kinase still bound, per cent of control", "setting": "[32]", "result": 100, "unit": "%"},
      {"measurement": "kinase still bound, per cent of control", "setting": "[33]", "result": 100, "unit": "%"},
      {"measurement": "kinase still bound, per cent of control", "setting": "[34]", "result": 69, "unit": "%"},
      {"measurement": "kinase still bound, per cent of control", "setting": "[35]", "result": 100, "unit": "%"},
      {"measurement": "kinase still bound, per cent of control", "setting": "[36]", "result": 71, "unit": "%"},
      {"measurement": "kinase still bound, per cent of control", "setting": "[37]", "result": 91, "unit": "%"},
      {"measurement": "kinase still bound, per cent of control", "setting": "[38]", "result": 100, "unit": "%"},
      {"measurement": "kinase still bound, per cent of control", "setting": "[39]", "result": 59, "unit": "%"},
      {"measurement": "kinase still bound, per cent of control", "setting": "[40]", "result": 100, "unit": "%"},
      {"measurement": "kinase still bound, per cent of control", "setting": "[41]", "result": 85, "unit": "%"}
    ]}
  ]
}
